Measurements reported in patent publication US8546440B2, “Substituted bicyclic imidazole derivatives as gamma secretase modulators” (Janssen Pharmaceuticals, Inc., priority 2008, dated 2013).

Legend:
[1] = test system: Aβtotal; test: Screening for γ-secretase-modulating activity, Method 1: Aβtotal sandwich ELISA in supernatant of SKNBE2 cells carrying APP 695 wild type (Tables 12a, 12b); assay type: cell-based; conditions: Homo sapiens
Summary of the method: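 Aβtotal in conditioned medium was measured by 6E10/biotin-4G8 sandwich ELISA with fluorogenic peroxidase read-out. Cells were wild-type APP 695 SKNBE2, treated 18 hours in glutamine-supplemented Ultraculture. IC50 came from 4-parameter fits of inhibition, or percent of control, against concentration; toxicity was checked by WST-1.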

[2] = test system: Aβ42; test: Screening for γ-secretase-modulating activity, Method 1: Aβ42 sandwich ELISA in supernatant of SKNBE2 cells carrying APP 695 wild type (Tables 12a, 12b); assay type: cell-based; conditions: Homo sapiens
Summary of the method: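 Aβ42 levels in the supernatant were measured by ELISA with 450 nm colorimetric read-out after 18 h compound exposure of wild-type APP695 SKNBE2 cells plated one day earlier. IC50 was fitted with a 4-parameter model, either with fixed top/bottom and a Hill slope of 1, or as averaged values from % of vehicle control; WST-1 was used to flag cytotoxicity.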

[3] = test system: Aβ42; test: Screening for γ-secretase-modulating activity, Method 2: Aβ42 Alphalisa in supernatant of SKNBE2 cells carrying APP 695 wild type (Table 12c); assay type: cell-based; conditions: Homo sapiens, Method 2, Table 12c, incubated overnight
Summary of the method: (§1)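 SKNBE2 cells expressing wild-type APP695, 10^4 cells/well, exposed to compound overnight at 37 °C; secreted Aβ42 and Aβtotal in supernatant measured by AlphaLISA sandwich immunoassays (Aβ42: C-terminal/N-terminal antibodies; Aβtotal: N-terminal/4G8). IC50 from 4-parameter fit of % untreated control.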

[4] = test system: Aβtotal; test: Screening for γ-secretase-modulating activity, Method 2: Aβtotal Alphalisa in supernatant of SKNBE2 cells carrying APP 695 wild type (Table 12c); assay type: cell-based; conditions: Homo sapiens, Method 2, Table 12c, incubated overnight
Summary of the method: as §1

[5] = Method 1, Table 12a, SKNBE2 cells carrying APP 695 wild type, compounds 18 hours, ELISA, curve top and bottom fixed to 100 and 0, hill slope 1
[6] = Table 12b, Method 1, SKNBE2 cells carrying APP 695 wild type, cell supernatant ELISA, averaged IC50 values
[7] = Table 12b, Method 1, SKNBE2 cells carrying APP 695 wild type, cell supernatant ELISA, averaged IC50 values, percentage of control vs log concentration

Row | SMILES | melting point | IC50 [1, 5] | IC50 [1, 6] | IC50 [2, 5] | IC50 [2, 7] | IC50 [3] | IC50 [4]
1 | Cc1cn2cccc(Nc3ccc(-n4cnc(C)n4)cc3)c2n1 [Compound 78] | 213.1 °C | > 10 µM | > 10 µM | 6.44 µM | 9.55 µM | – | –
2 | Cc1ncn(-c2ccc(Nc3cccn4c(C)c(C)nc34)cc2)n1 [Compound 79] | 230.6 °C | – | > 10 µM | – | 7.41 µM | – | –
3 | COc1cc(Nc2cccn3cc(C)nc23)ccc1-n1cncn1 [Compound 80] | 147.5 °C | – | > 10 µM | – | 3.8 µM | – | –
4 | COc1cc(Nc2cccn3cc(-c4cc(C#N)ccc4C)nc23)ccc1-n1cnc(C)c1 [Compound 105] | 127.5 °C | – | > 3.02 µM | – | 0.089 µM | 0.032 µM | 6.61 µM
5 | COCCc1c(-c2ccc(F)cc2)nc2c(Nc3ccc(-n4cnc(C)n4)c(OC)c3)cccn12 [Compound 127] | 149.5 °C | – | > 10 µM | – | 0.089 µM | 0.056 µM | > 10 µM
6 | Cc1ccc(C(F)(F)F)cc1-c1cn2cccc(Nc3ccc(-n4ncnc4C)c(F)c3)c2n1 [Compound 130] | 210 °C | – | > 3.02 µM | – | 0.178 µM | – | –
7 | COc1cc(Nc2cccn3c(OC)c(-c4ccc(F)cc4)nc23)ccc1-n1cnc(C)n1 [Compound 132] | 165.1 °C | – | – | – | – | 0.251 µM | 6.92 µM
8 | COc1nc(Nc2cccn3c(C)c(-c4ccccc4Cl)nc23)ccc1-n1cnc(C)n1 [Compound 145] | 250.3 °C | – | – | – | – | 0.007 µM | > 10 µM
9 | COc1nc(Nc2cc(C(C)C)nn3cc(-c4ccccc4Cl)nc23)ccc1-n1cnc(C)c1 [Compound 163] | 179.3 °C | – | – | – | – | 0.166 µM | 8.32 µM
